Test results: patent publication US20040038903A1, “Gonadotropin releasing hormone antagonists in gel-forming concentration” (priority 2001, published 2004)

Assays:
[1] = Stability of aqueous solution: gel formation by visual examination; type: physicochemical; conditions: room temperature
Procedure: Gel formation was determined by visual examination.

Serum LH = assay: Efficacy of formulation in vivo: serum LH levels; conditions: 25 mg/ml in 5% mannitol, 80 μl/kg s.c., ovariectomised Rhesus monkeys
Procedure: Peptide 1 is dissolved in 5% mannitol (25 mg/ml). Three ovariectomised Rhesus monkeys are treated with this solution (80 μl/kg) by subcutaneous injection. Serum LH levels is measured for the following 101 days.

Serum Testosterone = assay: Efficacy of formulation in vivo: serum testosterone levels; conditions: 5 mg/ml in 5% mannitol, 100 μl/kg s.c., adult male Beagle dogs
Procedure: Peptide 1 is dissolved in 5% mannitol (5 mg/ml). Three adult male Beagle dogs are treated with this solution (100 μl/kg) by subcutaneous injection. Serum Testosterone levels are measured for the following 42 days. When Testosterone levels started to incline again the experiment was terminated.

For “Ac-DNal-DCpa-DPal-Ser-Aph(L-Hor)-DAph(CONH2)-Leu-Lys(iPr)-Pro-DAla-NH2 [Peptide 1]”, the “Stability (time to gel formation)” value ([1]; 0.25 mg/ml (calculated as free base) in water) was “No gel formation after 6 months”, the “Stability (time to gel formation)” value ([1]; 1.0 mg/ml (calculated as free base) in water) was “No gel formation after 6 months” and the “Stability (time to gel formation)” value ([1]; 5.0 mg/ml (calculated as free base) in water) was “Gel formation after 4 weeks”. For the same substance, the “Stability (time to gel formation)” value ([1]; 10.0 mg/ml (calculated as free base) in water) was “Gel formation after 2 weeks”, the “Stability (time to gel formation)” value ([1]; 30.0 mg/ml (calculated as free base) in water) was “Gel formation after 48 hours” and the “Stability (time to gel formation)” value ([1]; 40.0 mg/ml (calculated as free base) in water) was “Gel formation after 24 hours”. The “Stability (time to gel formation)” value ([1]; 60.0 mg/ml (calculated as free base) in water) was “Gel formation after 8 hours”, the “Stability (time to gel formation)” value ([1]; 80.0 mg/ml (calculated as free base) in water) was “Rapid gel formation within 60 minutes” and the “Stability (time to gel formation)” value ([1]; 120.0 mg/ml (calculated as free base) in water) was “Rapid gel formation within 30 minutes”. For the same substance, the “Serum LH, mean ± se” value (Serum LH; Day 1) was 10.5 ± 1.5 ng/mL, the “Serum LH, mean ± se” value (Serum LH; Day 2) was 11.8 ± 2.6 ng/mL and the “Serum LH, mean ± se” value (Serum LH; Day 7) was 6.7 ± 1.2 ng/mL. For the same substance, the “Serum LH, mean ± se” value (Serum LH; Day 14) was 5.8 ± 0.9 ng/mL, the “Serum LH, mean ± se” value (Serum LH; Day 21) was 6.6 ± 1.0 ng/mL and the “Serum LH, mean ± se” value (Serum LH; Day 28) was 9.4 ± 1.3 ng/mL. For the same substance, the “Serum LH, mean ± se” value (Serum LH; Day 35) was 8.8 ± 1.0 ng/mL, the “Serum LH, mean ± se” value (Serum LH; Day 42) was 11.8 ± 2.3 ng/mL and the “Serum LH, mean ± se” value (Serum LH; Day 72) was 29.5 ± 4.3 ng/mL. For the same substance, the “Serum LH, mean ± se” value (Serum LH; Day 101) was 48.9 ± 8.3 ng/mL, the “Serum LH, mean ± se” value (Serum LH; Hour 6) was 16.2 ± 1.9 ng/mL and the “Serum LH, mean ± se” value (Serum LH; Time 0) was 60.1 ± 7.5 ng/mL. The “Serum Testosterone, mean ± se” value (Serum Testosterone; Day 7) was <0.2 nmol/L, the “Serum Testosterone, mean ± se” value (Serum Testosterone; Day 14) was <0.2 nmol/L and the “Serum Testosterone, mean ± se” value (Serum Testosterone; Day 21) was <0.2 nmol/L. The “Serum Testosterone, mean ± se” value (Serum Testosterone; Day 28) was <0.2 nmol/L, the “Serum Testosterone, mean ± se” value (Serum Testosterone; Day 42) was 3.3 ± 3 nmol/L and the “Serum Testosterone, mean ± se” value (Serum Testosterone; Hour 4) was <0.2 nmol/L. For the same substance, the “Serum Testosterone, mean ± se” value (Serum Testosterone; Time 0) was 13.8 ± 5.7 nmol/L.
